The test system of assay [1] is ER-α mRNA expression in MCA melanoma cell line. In words: ER-α mRNA re-expression by RT-PCR in melanoma cell lines after 5-Aza and TSA treatment. To be noted: data not shown. The class given is cell-based, human. The protocol: To confirm down-regulation of ER-α expression by hypermethylation of the ER-α promoter region, cell lines were treated with the DNA-demethylating agent, 5-Aza, and the HDAC inhibitor, TSA. In combination with 5-Aza treatment, TSA can up-regulate the mRNA expression of genes silenced due to hypermethylation (26, 27). The MCF-7 cell line was used as an ER-α positive control and the MCA cell line was used as an ER-α negative control. Cell lines were maintained in RPMI 1640 medium supplemented with heat-inactivated 10% fetal bovine serum (FBS), penicillin G, and streptomycin (100 U/ml). Cells were treated with 1000 nM TSA for 24 hr (Wako Biochemicals, Osaka, Japan) and 1000 nM 5-Aza for five days (Sigma Chemical Co., St Louis, Mo.). After treatment with 5-Aza and TSA, melanoma cells were washed with phosphate buffered saline (PBS) and harvested with 0.25% trypsin-0.53 mM EDTA (Gibco, Auckland, N.J.). The mRNA expression level of ER-α was assessed by RT-PCR before and after 5-Aza and TSA treatment. […] The RNA was quantified and assessed for purity using ultraviolet spectrophotometry and the RIBOGreen detection assay (Molecular Probes, Eugene, Oreg.). The expression of mRNA for GAPDH, an internal reference housekeeping gene, was assessed by RT-PCR on all RNA samples to verify the integrity of RNA and to indicate equal loading of PCR products for gel electrophoresis. […]

The next assay has as its system advanced melanoma. Particulars: chemotherapy and BC regimens; cited from earlier work.
The subject of a further assay is melanoma cells. Particulars: in vitro experiments; cited from earlier work.

This is an account of results in US7829283B2, “Methylation of estrogen receptor alpha and uses thereof” (John Wayne Cancer Institute, priority 2006, dated 2010).

For the compound `Nc1ncn([C@H]2C[C@H](O)[C@@H](CO)O2)c(=O)n1` [5-Aza, 5-aza-2-deoxycytidine], the “ER-α mRNA expression, single agent versus need for the second agent” value in assay [1] is listed as “did not significantly increase”. In the case of `CC(/C=C/C(=O)NO)=C\[C@@H](C)C(=O)c1ccc(N(C)C)cc1` [TSA, trichostatin A], in assay [1], the “ER-α mRNA expression, single agent versus need for the second agent” value is reported as “necessary to significantly increase expression above pretreatment levels”. For `CC/C(=C(\c1ccccc1)c1ccc(OCCN(C)C)cc1)c1ccccc1` [tamoxifen], the “overall survival in advanced melanoma” value in the assay on advanced melanoma is “has not been shown to significantly improve overall survival”. Further, in the assay with melanoma cells, the “growth inhibition of melanoma cells in vitro” value was “effective growth inhibitor”.
